# Experimental data: US11452731B2, “Method of treating and preventing loss of cognition” (ENDORECHERCHE, INC., priority 2009, dated 2022)
# “Also recorded” adds a separate entry of the source.
# Experiments:
# [1] = Uterine and vaginal weight in ovariectomized BALB/c mice treated orally for 9 days with or without estrone (Example 3); format: in vivo; conditions: for inhibition of estrone-stimulated uterine weight / inhibition of vaginal weight (estrone-stimulated): OVX mice + estrone, oral 9 days
# Summary of the method: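 OVX BALB/c mice (18-20 g) were dosed orally by gavage once daily for 9 days from day 2 post-OVX, with or without estrone s.c. twice daily from day 5 for 6 days. The vehicle was 4% ethanol in 0.4% methylcellulose. Uterine and vaginal weights were taken on the 11th morning after OVX.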
# [2] = Clinical trial ERC-213: DHEA vaginal suppositories for 7 days, maturation index and vaginal pH in postmenopausal women (Example 11); format: in vivo
# Description: Data are expressed as means±SEM (n=9 or 10). *, p<0.05, **, p<0.01, Data on Day 7 versus Data on Day 1.
# The primary objective of that study was measurement of the maturation value of the vaginal epithelial cells following daily intravaginal application of DHEA. Forty postmenopausal women were randomized to receive a daily dose of one ovule of the following DHEA concentrations: 0.0%, 0.5% (6.5 mg of DHEA/ovule), 1.0% (13 mg of DHEA/ovule) or 1.8% (23.4 mg of DHEA/ovule) for 7 days. The systemic bioavailability of DHEA and its metabolites were also measured.
# [3] = 12-month treatment of ovariectomized rats with DHEA alone or with Flutamide or EM-800: bone histomorphometry, bone markers, serum lipids; format: in vivo, rat; conditions: 12 months
# [4] = Uterine, vaginal and body weight in estrone-supplemented OVX nude mice (Example 1); format: in vivo
# Description: DHEA was dissolved in 50% ethanol 50% propylene glycol. […] Tumors were measured once a week with Vernier calipers.
# [5] = test system: ZR-75-1 human breast cancer xenografts; assay: Growth and response of human ZR-75-1 breast tumor xenografts in estrone-supplemented OVX nude mice, DHEA and/or EM-800 for 9.5 months (Example 1); format: in vivo; conditions: for Inhibition of estrone-stimulated ZR-75-1 tumor size / Category of response: Complete (%) / Category of response: Complete (Number) / Category of response: Partial (%) / Category of response: Partial (Number) / Category of response: Progression (%) / Category of response: Progression (Number) / Category of response: Stable (%) / Category of response: Stable (Number) / Average tumor weight at end of experiment: 9.5 months; for Category of response: Complete (%) / Category of response: Complete (Number) / Category of response: Partial (%) / Category of response: Partial (Number) / Category of response: Progression (%) / Category of response: Progression (Number) / Category of response: Stable (%) / Category of response: Stable (Number) / Average tumor weight at end of experiment: E1-supplemented
# [6] = 9-month treatment with DHEA and/or EM-800 in the rat: urinary and serum markers of bone metabolism; format: in vivo
# From the text: It is particularly important to indicate that the combination of DHEA and EM-800 exerted unexpected beneficial effects on important biochemical parameters of bone metabolism. […] Moreover, no effect of DHEA could be detected on daily urinary calcium or phosphorus excretion (Luo et al., 1997). EM-800 decreased the urinary hydroxyproline/creatinine ratio by 48% while, similarly to DHEA, no effect of EM-800 was seen on urinary calcium or phosphorus excretion. EM-800, moreover, had no effect on serum alkaline phosphatase activity, a marker of bone formation while DHEA increased the value of the parameter by about 75% (Luo et al., 1997).
# [7] = OVX mice, absence of estrone, 10 μg daily (no-effect statements: 1 μg and 10 μg)
# [8] = DHEA 0.3 mg, EM-800 15 μg, or EM-800 15 μg + DHEA 0.3 mg
# [9] = DHEA 1.0 mg, EM-800 50 μg, or EM-800 15 μg + DHEA 1.0 mg
# [10] = DHEA 3.0 mg, EM-800 100 μg, or EM-800 15 μg + DHEA 3.0 mg
# [11] = DHEA 10 mg, EM-800 75 μg, alone or combined
smiles,measurement,setting,value
"CC1=C(c2ccc(O)cc2)[C@H](c2ccc(OCCN3CCCCC3)cc2)Oc2cc(O)ccc21.Cl [EM-652.HCl, (S)-(+)-7-hydroxy-3-(4′-hydroxyphenyl)-4-methyl-2-(4″-(2′″-piperidinoethoxy)phenyl)-2H-1-benzopyran hydrochloride]",inhibition of estrone-stimulated uterine weight,[1]; 1 μg daily,24%
same,inhibition of vaginal weight (estrone-stimulated),[1]; 1 μg daily,10%
same,inhibition of estrone-stimulated uterine weight,[1]; 3 μg daily,48%
same,inhibition of vaginal weight (estrone-stimulated),[1]; 3 μg daily,25%
same,inhibition of estrone-stimulated uterine weight,[1]; 10 μg daily,72%
same,inhibition of vaginal weight (estrone-stimulated),[1]; 10 μg daily,53%
same,stimulation of uterine weight (estrogenic effect),[1]; [7],no significant stimulatory effect
same,stimulation of vaginal weight (estrogenic effect),[1]; [7],no significant stimulatory effect
"C[C@]12CC[C@H](O)CC1=CC[C@@H]1[C@@H]2CC[C@]2(C)C(=O)CC[C@@H]12 [DHEA, dehydroepiandrosterone]","increase of maturation index, Day 7 versus Day 1",[2]; 0.5% DHEA vaginal suppository daily,107%
same,Vaginal pH,"[2]; 0.5% DHEA, Day 1 (before)",6.29±0.21
same,Vaginal pH,"[2]; 0.5% DHEA, Day 7",5.75±0.27
same,"increase of maturation index, Day 7 versus Day 1",[2]; 1.0% DHEA vaginal suppository daily,75%
same,Vaginal pH,"[2]; 1.0% DHEA, Day 1 (before)",6.47±0.23
same,Vaginal pH,"[2]; 1.0% DHEA, Day 7",5.76±0.22
same,"increase of maturation index, Day 7 versus Day 1",[2]; 1.8% DHEA vaginal suppository daily,150%
same,Vaginal pH,"[2]; 1.8% DHEA, Day 1 (before)",6.53±0.25
same,Vaginal pH,"[2]; 1.8% DHEA, Day 7",5.86±0.28
same,reduction of serum cholesterol versus OVX control,[3],22%
same,Alkaline phosphatase (serum),[3]; OVX rats,201±25 IU/L
same,CHOLESTEROL (serum),[3]; OVX rats,1.78 ± 0.16 mmol/L
same,OH-proline/creatinin (urine),[3]; OVX rats,7.3±1.0 μmol/mmol
same,Triglycerides (serum),[3]; OVX rats,0.8 ± 0.1 mmol/L
same,increase in trabecular bone number compared to ovariectomized controls,[3]; OVX rats,137%
same,trabecular bone number,[3]; OVX rats,1.27±0.1 per mm
same,trabecular bone volume of the tibia,[3]; OVX rats,11.9±0.6%
same,effect on body weight adjusted for tumor weight,[4]; 9.5 months,No significant effect
same,inhibition of the stimulatory effect of estrone on uterine weight,[4]; highest dose of DHEA used,26%
same,Inhibition of estrone-stimulated ZR-75-1 tumor size,[5]; daily DHEA 0.3 mg or EM-800 15 μg,50.4%
same,Inhibition of estrone-stimulated ZR-75-1 tumor size,[5]; daily DHEA 1.0 mg or EM-800 50 μg,76.8%
same,Inhibition of estrone-stimulated ZR-75-1 tumor size,[5]; daily DHEA 3.0 mg or EM-800 100 μg,80.0%
same,Inhibition of terminal tumor weight,[5]; DHEA 0.3 mg,67%
same,Inhibition of terminal tumor weight,[5]; DHEA 1.0 mg,82%
same,Inhibition of terminal tumor weight,[5]; DHEA 3.0 mg,85%
same,Category of response: Complete (%),[5]; [8],28.6%
same,Category of response: Complete (Number),[5]; [8],4
same,Category of response: Partial (%),[5]; [8],0 (0) %
same,Category of response: Partial (Number),[5]; [8],0 (0)
same,Category of response: Progression (%),[5]; [8],50.0%
same,Category of response: Progression (Number),[5]; [8],7
same,Category of response: Stable (%),[5]; [8],21.4%
same,Category of response: Stable (Number),[5]; [8],3
same,Category of response: Complete (%),[5]; [9],26.7%
same,Category of response: Complete (Number),[5]; [9],4
same,Category of response: Partial (%),[5]; [9],0 (0) %
same,Category of response: Partial (Number),[5]; [9],0 (0)
same,Category of response: Progression (%),[5]; [9],53.3%
same,Category of response: Progression (Number),[5]; [9],8
same,Category of response: Stable (%),[5]; [9],20.0%
same,Category of response: Stable (Number),[5]; [9],3
same,Category of response: Complete (%),[5]; [10],20.0%
same,Category of response: Complete (Number),[5]; [10],3
same,Category of response: Partial (%),[5]; [10],0 (0) %
same,Category of response: Partial (Number),[5]; [10],0 (0)
same,Category of response: Progression (%),[5]; [10],66.7%
same,Category of response: Progression (Number),[5]; [10],10
same,Category of response: Stable (%),[5]; [10],13.3%
same,Category of response: Stable (Number),[5]; [10],2
same,Average tumor weight at end of experiment,"[5]; daily DHEA 0.3 mg, EM-800 15 μg, or EM-800 15 μg + DHEA 0.3 mg",0.37 ± 0.12 g
same,Average tumor weight at end of experiment,"[5]; daily DHEA 1.0 mg, EM-800 50 μg, or EM-800 15 μg + DHEA 1.0 mg",0.20 ± 0.06 g
same,Average tumor weight at end of experiment,"[5]; daily DHEA 3.0 mg, EM-800 100 μg, or EM-800 15 μg + DHEA 3.0 mg",0.17 ± 0.06 g
same,decrease of urinary hydroxyproline/creatinine ratio (marker of bone resorption),[6],did not affect; also recorded: did not show any effect
same,effect on daily urinary calcium or phosphorus excretion,[6],no effect
same,increase of serum alkaline phosphatase activity (marker of bone formation),[6],about 75%
same,Serum tALP,[6]; [11],198.38 ± 30.76 IU/L
same,Urine HP/Cr,[6]; [11],14.02 ± 1.59 μmol/mmol
same,Urine calcium,[6]; [11],25.87 ± 3.54 μmol/24 h/100 g
same,Urine phosphorus,[6]; [11],151.41 ± 14.57 μmol/24 h/100 g
